The record followed here is patent publication US9119881B2, “Method of synergistically enhancing the therapeutic efficacy and safety of medication through a combination therapy” (priority 2010, dated 2015).

In assay [1] the test system is human aorta endothelial cells (HAECs). In words: Intracellular cAMP assessment in HAECs. The class given is cell-based. Particulars: 5 min stimulation, beginning at 0.1 uM ABA. The method, then: These cells were serum-starved using HBSS buffer for 30 min and then stimulated with various concentrations of abscisic acid (ABA) or Forskolin (forsk, 1 uM) for 5 minutes. After removing supernatant, cells were lysed with 0.1 M HCL to measure nonacetylated cAMP. Results (pmol/ml) from four independent experiments are depicted. Data are represented as mean±standard error.
Confluent human aorta endothelial cells (HAECs) were serum-starved using HBSS buffer for 30 min, then stimulated with various concentration of ABA and Forskolin (1 uM) for 5 min, after removing supernatant, cells were lysed with 0.1 M HCL to measure non-acetylated cAMP using a commercially available kit (Cayman chemical) following the manufacturer's instructions. Results (pmol/mL) were obtained from four independent experiments. For nitric oxide (NO), confluent HAECs were serum-starved for 30 min by using HBSS buffer, then treated with ABA for 15 min. Supernatant was used to measure NO using an fluorescent kit.

In assay [2] the test system is insulin-secreting pancreatic beta cells. In words: Pancreatic beta cell viability / apoptosis after streptozotocin challenge. In kind it is cell-based. From the text:
Data are presented as mean±standard error.

In assay [3] the test system is stromal vascular cells (SVCs). As to the kind of experiment: Gene expression in LPS-treated stromal vascular cells. In kind it is cell-based, mice. Particulars: LPS 100 ng/mL, 6 h, ABA 10 μM, rosiglitazone 1 μM. The method, then:
SVCs from abdominal white adipose tissue were isolated from db/db mice fed high-fat control diet for 60 days. Cells were seeded into 24-well plates at 1×10^6 cells/well and treated with LPS (100 ng/mL) with and without ABA (10 μM), Ros (1 μM), or ABA and Ros (ABA/Ros). The relative expressions of genes peroxisome proliferator activated receptor γ (PPAR γ) (A), CCL17 (B), monocyte chemoattractant protein 1 (MCP-1) (C), and mannose receptor (D) were calculated as a ratio to the housekeeping gene β-actin. Data are represented as mean±standard error.
Isolated cells from the stromal vascular fraction (SVF) of WAT from high-fat fed db/db mice were enumerated and seeded into 24-well plates at […] cells/well. […]
Total RNA was isolated from adipose tissue using the RNeasy Lipid Mini Kit (Qiagen) and from cells using the RNeasy Mini Kit (Qiagen) according to the manufacturer's instructions. […] Each gene amplicon was purified with the MiniElute PCR Purification Kit (Qiagen) and quantitated on an agarose gel by using a DNA mass ladder (Promega). […]
Complementary DNA (cDNA) concentrations for genes of interest were examined by real-time quantitative PCR using an iCycler IQ System and Sybr Green PCR master mix (Applied Biosystems, Foster City, Calif.). […] Results are presented as starting quantity of target cDNA (picograms) per microgram of total RNA.

In assay [4] the target is T1, PPAR γ (Mus musculus, UniProt P37238).
T1 construct: expressed in transfected cells; host or cells: 3T3-L1 pre-adipocytes
T1 sequence (P37238 31-505 limits assumed): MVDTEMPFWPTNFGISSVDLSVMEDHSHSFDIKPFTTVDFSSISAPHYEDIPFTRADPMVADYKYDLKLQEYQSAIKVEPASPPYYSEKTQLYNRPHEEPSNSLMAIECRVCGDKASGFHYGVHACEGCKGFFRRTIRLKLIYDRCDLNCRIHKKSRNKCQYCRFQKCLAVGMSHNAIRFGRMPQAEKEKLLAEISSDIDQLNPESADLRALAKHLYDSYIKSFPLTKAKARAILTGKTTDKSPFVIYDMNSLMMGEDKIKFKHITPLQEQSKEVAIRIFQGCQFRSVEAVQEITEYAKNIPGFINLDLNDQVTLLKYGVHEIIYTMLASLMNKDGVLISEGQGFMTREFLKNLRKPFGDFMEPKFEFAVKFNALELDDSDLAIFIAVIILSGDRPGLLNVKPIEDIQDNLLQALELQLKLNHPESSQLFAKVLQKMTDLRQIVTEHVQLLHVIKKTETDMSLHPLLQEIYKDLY
As to the kind of experiment: PPAR γ reporter activity assay in 3T3-L1 preadipocytes. Conditions: 6 hrs, Ros 1 μM, ABA 10 μM. The class given is cell-based. As for the experimental part: For 3T3-L1 preadipocytes cells were treated for 6-h with vehicle (DMSO) or Ros (1 μM) with ABA (10 μM), the cAMP-inhibitor 2′5′ dideoxyadenosine (dideoxy, 10 μM), or 14-22 myristolated PKA inhibitor fragment (PKAi, 30 μM). […] Luciferase activity was normalized to pRL activity in the cell extracts and relative luciferase activity was calculated a ratio of the activity in the treatment wells to control wells. Data are represented as mean±standard error.
A pCMX.PPAR γ expression plasmid and a pTKPPRE3x luciferase reporter plasmid driven by the PPRE-containing Acyl-CoA oxidase promoter (kindly provided by Dr. R M. Evans, The Salk Institute, San Diego, Calif.) were purified using Qiagen's Maxi kit (Valencia, Calif.). […] Cells were co-transfected in the […] with 1.5 μg plasmid DNA and 25 ng of pRL reporter control using F-2 transfection reagents (Targeting Systems, Santee, Calif.) according to the manufacturer's protocol. […] Cells were then treated in replicates of 8 with vehicle (DMSO), rosiglitazone (1 or 10 μM; Cayman Chemicals, Arm Arbor, Mich.), or ABA (10 μM; Sigma) with and without 2′5′ dideoxyadenosine (10 μM; Sigma) and 14-22 myristolated PKA inhibitor fragment (PKAi, 30 μM; Sigma). […] Luciferase activity, normalized to pRL activity in the cell extracts was determined by using the Dual Luciferase II reporter assay system (Promega, Madison, Wis.) using a Modulus 96-well luminometer (Turner Biosystems, Sunnyvale, Calif.). All values were normalized to control wells to calculate relative luciferase activity.

Molecules are shown by their SMILES.

As for `CC1=CC(=O)CC(C)(C)C1(O)/C=C/C(C)=C\C(=O)O` (racemic) [ABA, abscisic acid], in assay [1], the “intracellular cAMP concentration” value is on record as “significantly increased”. Moreover, in assay [2] (ABA 1 and 10 micromolar, streptozotocin (STZ) 2 mM for 24 hours), the “viability of insulin-secreting pancreatic beta cells” value is on record as “increases”. Besides, the “pancreatic beta cell apoptosis caused by streptozotocin” value in assay [2] (FIG. 4) is reported as “diminishes”. Moreover, in assay [3], the “M1 marker CCL17 expression” value is on record as “significantly reduced”. In assay [4], the “PPAR γ activity” value is on record as “increased”.
